Test results as given in patent publication US7592347B2, “Piperazine derivates and their use for the treatment of neurological and psychiatric diseases” (Glaxo Group Limited, priority 2003, dated 2009).

target: T1, histamine H3 receptor (Homo sapiens, UniProt Q9Y5N1); experiment: Histamine H3 functional antagonist assay ([35S]GTPγS SPA, membranes of CHO K1 cells expressing human H3); format: biochemical; settings: functional antagonism of histamine (0.3 μM) stimulated [35S]GTPγS binding, membranes of CHO K1 cells with human histamine H3
T1 construct: expressed in transfected cells; host or cells: CHO K1 cells carrying pSwitch, transfected with pGeneH3 and induced with mifepristone; clone 3H3; membranes
Method: A membrane preparation containing histamine H3 receptors may be prepared in accordance with the following procedures:
Ligated DNA was transformed into competent DH5α E. coli host bacterial cells and plated onto Luria Broth (LB) agar containing Zeocin™ (an antibiotic which allows the selection of cells expressing the sh ble gene which is present on pGene and pSwitch) at 50 μg ml^−1. Colonies containing the re-ligated plasmid were identified by restriction analysis. DNA for transfection into mammalian cells was prepared from 250 ml cultures of the host bacterium containing the pGeneH3 plasmid and isolated using a DNA preparation kit (Qiagen Midi-Prep) as per manufacturers guidelines (Qiagen).
CHO K1 cells previously transfected with the pSwitch regulatory plasmid (InVitrogen) were seeded at 2×10e6 cells per T75 flask in Complete Medium, containing Hams F12 (GIBCOBRL, Life Technologies) medium supplemented with 10% v/v dialysed foetal bovine serum, L-glutamine, and hygromycin (100 μg ml^−1), 24 hours prior to use. Plasmid DNA was transfected into the cells using Lipofectamine plus according to the manufacturers guidelines (InVitrogen). 48 hours post transfection cells were placed into complete medium supplemented with 500 μg ml^−1 Zeocin™.
10-14 days post selection 10 nM Mifepristone (InVitrogen), was added to the culture medium to induce the expression of the receptor. […] Approximately 1×10e7 cells were examined for receptor expression by staining with a rabbit polyclonal antibody, 4a, raised against the N-terminal domain of the histamine H3 receptor, incubated on ice for 60 minutes, followed by two washes in sorting medium. […] Following two further washes with Sorting Medium, cells were filtered through a 50 μm Filcon™ (BD Biosciences) and then analysed on a FACS Vantage SE Flow Cytometer fitted with an Automatic Cell Deposition Unit. […] Positively stained cells were sorted as single cells into 96-well plates, containing Complete Medium containing 500 μg ml^−1 Zeocin™ and allowed to expand before reanalysis for receptor expression via antibody and ligand binding studies.
All steps of the protocol are carried out at 4° C. and with pre-cooled reagents. The cell pellet is resuspended in 10 volumes of buffer A2 containing 50 mM N-2-hydroxyethylpiperazine-N′-2-ethanesulfonic acid (HEPES)(pH 7.40) supplemented with 10e−4M leupeptin (acetyl-leucyl-leucyl-arginal; Sigma L2884), 25 μg/ml bacitracin (Sigma B0125), 1 mM ethylenediamine tetra-acetic acid (EDTA), 1 mM phenylmethylsulfonyl fluoride (PMSF) and 2×10e−6M pepstain A (Sigma). The cells are then homogenised by 2×15 second bursts in a 1 litre glass Waring blender, followed by centrifugation at 500 g for 20 minutes. The supernatant is then spun at 48,000 g.for 30 minutes. The pellet is resuspended in 4 volumes of buffer A2 by vortexing for 5 seconds, followed by homogenisation in a Dounce homogeniser (10-15 strokes). At this point the preparation is aliquoted into polypropylene tubes and stored at −70° C. […]
The plate is then incubated on a shaker at room temperature for 30 minutes followed by centrifugation for 5 minutes at 1500 rpm. The plate is read between 3 and 6 hours after completion of centrifuge run in a Wallac Microbeta counter on a 1 minute normalised tritium count protocol. Data is analysed using a 4-parameter logistic equation. Basal activity used as minimum i.e. histamine not added to well.

T1 sequence (Q9Y5N1 whole entry): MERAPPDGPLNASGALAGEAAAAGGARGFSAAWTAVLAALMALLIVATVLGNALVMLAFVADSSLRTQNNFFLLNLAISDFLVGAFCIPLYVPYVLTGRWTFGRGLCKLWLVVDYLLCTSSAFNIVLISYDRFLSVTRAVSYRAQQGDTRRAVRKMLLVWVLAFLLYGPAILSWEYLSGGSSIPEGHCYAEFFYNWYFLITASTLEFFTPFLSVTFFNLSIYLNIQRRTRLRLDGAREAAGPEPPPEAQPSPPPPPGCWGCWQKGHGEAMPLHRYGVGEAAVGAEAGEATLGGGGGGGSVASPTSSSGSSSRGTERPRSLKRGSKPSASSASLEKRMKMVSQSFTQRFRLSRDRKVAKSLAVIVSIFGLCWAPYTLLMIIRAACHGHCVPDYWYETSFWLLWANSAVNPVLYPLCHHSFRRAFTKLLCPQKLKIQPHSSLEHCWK

Kb, < 3.16 nM:
Cc1noc(-c2ccc(N3CCC(C(=O)N4CCCN(C(C)C)CC4)CC3)cc2)n1 [Example E168, 1-Isopropyl-4-{1-[4-(3-methyl-1,2,4-oxadiazol-5-yl)phenyl]-piperidine-4-carbonyl}-[1,4]-diazepane]
CC(=O)Nc1ccc(N2CCC(C(=O)N3CCCN(C(C)C)CC3)CC2)cc1F [Example E169, 1-Isopropyl-4-[1-(4-acetamido-3-fluorophenyl)-piperidine4-carbonyl]-[1,4]-diazepane]
CC(=O)c1ccc(N2CCC(C(=O)N3CCCN(C4CCC4)CC3)CC2)cc1 [Example E170, 1-Cyclobutyl-4-[1-(4-acetylphenyl)-piperidine-4-carbonyl]-[1,4]-diazepane]
N#Cc1ccc(N2CCC(C(=O)N3CCCN(C4CCC4)CC3)CC2)cn1 [Example E179, 1-Cyclobutyl-4-[1-(6-cyano-pyridin-3-yl)-piperidine-4-carbonyl]-[1,4]-diazepane]
CC(C)N1CCCN(C(=O)C2CCN(c3ccc(C#N)nc3)CC2)CC1 [Example E180, 1-Isopropyl-4-[1-(6-cyano-pyridin-3-yl)-piperidine-4-carbonyl]-[1,4]-diazepane]
Cc1noc(-c2ccc(N3CCC(C(=O)N4CCN(C(C)C)CC4)CC3)cc2)n1 [Example E185, 1-Isopropyl-4-{1-[4-(3-methyl-1,2,4-oxadiazol-5-yl)phenyl]-piperidine-4-carbonyl}-piperazine]
CC(C)N1CCCN(C(=O)C2CCN(c3cnc(C(F)(F)F)nc3)CC2)CC1 [Example E198, 1-Isopropyl-4-[1-(2-trifluoromethylpyrimidin-5-yl)-piperidine-4-carbonyl]-[1,4]-diazepane]
